Assay results: US20050197292A1, “Compositions and methods for treating T-cell mediated pathological conditions” (priority 2004, published 2005)

Columns and labels:
[1] = tested on: CD8 T cells; experiment: TCR-CD28 co-stimulated proliferation, [3H] thymidine incorporation, CD8 T cells; format: cell-based, human; conditions: anti-CD3 150 ng/ml and anti-CD28 1 μg/ml coated, 72 h
Description: (§1) 96-well plates were coated with the anti-CD3 and anti-CD28 mAb at 150 ng/ml and 1 μg/ml respectively in PBS overnight at 4° C., aspirated and coated with the control protein, CG57008-15, CG57008-12 or CG57008-14 for 4 hr at 37° C. Wells were aspirated and 150 μl of purified Human CD4+, CD8+ or polarized TH2 cells from healthy blood donors, or purified CD4+ or CD8+ T cells from B6 mice at a concentration of 0.7×10^6 cells/ml were added and cultured for 72 h at 37° C. Proliferation was measured by [^3H] thymidine incorporation by pulsing cells with 0.5 μCi of [^3H] thymidine 8 hr prior to harvesting. Cytokines were measured by ELISA using cells harvested at 72 hr.

[2] = tested on: CD4 T cells; experiment: TCR-CD28 co-stimulated proliferation, [3H] thymidine incorporation, CD4 T cells; format: cell-based, human; conditions: anti-CD3 150 ng/ml and anti-CD28 1 μg/ml coated, 72 h
Description: as §1

## CG201877-02 (ECD/FC): Tim1 - Mus musculus; Mature Igkappa, ECD, Fc, V5, His
[1]
  proliferation of CD8 T cells: significantly inhibited
[2]
  proliferation of CD4 T cells: significantly inhibited
